± gives the standard deviation of the averaged measurements.
Test system: WB-F344
Test: gap junctional intercellular communication (dye spread) relative to vehicle control (fraction of control); higher = more gap junction communication (less inhibition)
Procedure: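 Confluent WB-F344 rat liver epithelial cells were pretreated with vehicle, D609 (PC-PLC inhibitor, 50 µM, 20 min), U0126 (MEK1/2 inhibitor, 20 µM, 30 min) or resveratrol (100 µM, 15 min), then exposed to a GJIC-dysregulating chemical at the listed dose and time. GJIC was measured by scalpel loading-dye transfer with Lucifer Yellow (3 min), and the dye-spread area was quantified in ImageJ as a fraction of the vehicle control (FOC). Individual values come from at least 3 independent experiments.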

[1] = pretreatment: D609+GJIC dysreg.
[2] = pretreatment: U0126+GJIC dysreg.

Row | Structure (SMILES) | gap junctional intercellular communication [1] | gap junctional intercellular communication (pretreatment: GJIC dysreg.) | gap junctional intercellular communication (pretreatment: RES+GJIC dysreg.) | gap junctional intercellular communication [2]
1 | c1cc2ccc3cccc4ccc(c1)c2c34 [Pyrene] (compound abbreviation / co-treatment: Pyr, exposure (dose, time): 70 µM, 10 min) | 0.844 ± 0.084 | 0.375 ± 0.078 | 0.802 ± 0.099 | 0.376 ± 0.061
2 | O=C(OOC(=O)c1ccccc1)c1ccccc1 [Benzoylperoxide] (compound abbreviation / co-treatment: BzOOH, exposure (dose, time): 200 µM, 15 min) | 0.373 ± 0.057 | 0.368 ± 0.085 | 0.313 ± 0.084 | 0.33 ± 0.14
3 | O=C(O)C(F)(F)C(F)(F)C(F)(F)C(F)(F)C(F)(F)C(F)(F)C(F)(F)C(F)(F)C(F)(F)F [Perfluorodecanoic acid] (compound abbreviation / co-treatment: PFDA, exposure (dose, time): 50 µM, 20 min) | 0.46 ± 0.12 | 0.22 ± 0.033 | 0.225 ± 0.023 | 0.239 ± 0.046
4 | c1ccc2c(c1)Cc1ccccc1-2 [Fluoren] (compound abbreviation / co-treatment: Flu, exposure (dose, time): 100 µM, 10 min) | 0.884 ± 0.12 | 0.253 ± 0.034 | 0.848 ± 0.12 | 0.309 ± 0.013

From the supplement of paper PMC4449167
